Values joined by “and” are separate entries in the source; they are usually repeats but may differ in a detail not shown here. Equal values may be shown once.
Assay: xn = mol fraction of the nth substance listed

Cc1cn([C@H]2CC(O)[C@@H](CO)O2)c(=O)[nH]c1=O (stereo partly specified) + O
viscosity [mPa·s], 101.3 kPa
Conditions | x1 = 9.02e-05 | x1 = 0.000159 | x1 = 0.0002266 | x1 = 0.0003081 | x1 = 0.0004541 | x1 = 0.0004775
298.15 K | 0.893 | 0.894 | 0.895 | 0.897 | 0.899 | 0.9
308.15 K | 0.721 | 0.722 | 0.723 | 0.724 | 0.726 | 0.727
318.15 K | 0.598 | 0.598 | 0.599 | 0.6 | 0.602 | 0.602

O=[PH2][O-].O=[PH2][O-].[Mn+2] + O
Conditions | viscosity [mPa·s]
298.15 K, 101.33 kPa, x1 = 0.0137 | 1.68

CC(=O)CC(C)C + O=C1CCCCC1
298.15 K, 101 kPa
Conditions | viscosity [mPa·s]
x1 = 0.1218 | 1.58
x1 = 0.2067 | 1.371
x1 = 0.3146 | 1.163
x1 = 0.3931 | 1.037
x1 = 0.534 | 0.872
x1 = 0.6373 | 0.773
x1 = 0.7694 | 0.672
x1 = 0.888 | 0.599

CCCCCCCCCCCCCC[P+](CCCCCC)(CCCCCC)CCCCCC.c1nnc[n-]1 + O=C=O
Conditions | viscosity [mPa·s]
298.15 K, 100 kPa, x2 = 0.5 | 638

CCOCC + O=S(=O)(O)O
303.15 K, 101 kPa
Conditions | viscosity [mPa·s]
x1 = 0.00853 | 206.9
x1 = 0.01735 | 203
x2 = 0.05093 | 2.73
x2 = 0.07611 | 3.096
x2 = 0.1322 | 4.36
x2 = 0.1739 | 5.79
x2 = 0.2412 | 9.824
x2 = 0.3269 | 21.94
x2 = 0.3684 | 34.8
x2 = 0.3933 | 47.52
x2 = 0.4239 | 67.01
x2 = 0.4513 | 87.88
x2 = 0.5139 | 134.5
x2 = 0.5527 | 153.7
x2 = 0.5826 | 161.5
x2 = 0.636 | 160.6
x2 = 0.6604 | 156.7
x2 = 0.729 | 133.8
x2 = 0.8088 | 127.2
x2 = 0.8194 | 127.2
x2 = 0.891 | 138.2
x2 = 0.9089 | 145.2
x2 = 0.9478 | 169.2
x2 = 0.9658 | 187.2
x2 = 0.9684 | 189.7
x2 = 0.9737 | 196.3

O=C1CCCCC1 + OCCO
293.15 K, 101.33 kPa
Conditions | viscosity [mPa·s]
x2 = 0.1495 | 2.735
x2 = 0.2349 | 3.114
x2 = 0.293 | 3.566
x2 = 0.4345 | 4.882
x2 = 0.5042 | 5.922
x2 = 0.5172 | 6.179
x2 = 0.6565 | 9.855
x2 = 0.6965 | 11.02
x2 = 0.7152 | 11.2
x2 = 0.7398 | 12.4
x2 = 0.8522 | 17.59
x2 = 0.8845 | 18.73

CC(C)CC(C)(C)C + c1ccccc1
308.15 K, 101 kPa
Conditions | viscosity [mPa·s]
x1 = 0.0565 | 0.5093
x1 = 0.1062 | 0.4873
x1 = 0.1666 | 0.4676
x1 = 0.2409 | 0.4496
x1 = 0.3214 | 0.436
x1 = 0.412 | 0.4255
x1 = 0.5227 | 0.4188
x1 = 0.6688 | 0.4174
x1 = 0.8154 | 0.423

CCCCCC(=O)O + c1ccccc1
298.15 K, 101 kPa
Conditions | viscosity [mPa·s]
x1 = 0.03 | 0.626
x1 = 0.07 | 0.653
x1 = 0.11 | 0.684
x1 = 0.14 | 0.718
x1 = 0.31 | 0.908
x1 = 0.4 | 1.058
x1 = 0.5 | 1.284
x1 = 0.73 | 1.844

CCCCCCO + c1ccccc1
Conditions | viscosity [mPa·s]
293.15 K, 100 kPa, x2 = 0.0814 | 4.394
293.15 K, 100 kPa, x2 = 0.1623 | 3.612
293.15 K, 100 kPa, x2 = 0.2401 | 3.045
293.15 K, 100 kPa, x2 = 0.3536 | 2.371
293.15 K, 100 kPa, x2 = 0.4411 | 1.932
293.15 K, 100 kPa, x2 = 0.5516 | 1.507
293.15 K, 100 kPa, x2 = 0.6465 | 1.218
293.15 K, 100 kPa, x2 = 0.7441 | 0.979
293.15 K, 100 kPa, x2 = 0.8425 | 0.828
293.15 K, 100 kPa, x2 = 0.9324 | 0.728
298.15 K, 101 kPa, x1 = 0.04 | 0.615
298.15 K, 101 kPa, x1 = 0.078 | 0.633
298.15 K, 101 kPa, x1 = 0.12 | 0.663
298.15 K, 101 kPa, x1 = 0.16 | 0.709
298.15 K, 101 kPa, x1 = 0.34 | 0.98
298.15 K, 101 kPa, x1 = 0.43 | 1.195
298.15 K, 101 kPa, x1 = 0.53 | 1.505
298.15 K, 101 kPa, x1 = 0.75 | 2.444
303 K, 101.33 kPa, x1 = 0.1001 | 0.6115
303 K, 101.33 kPa, x1 = 0.2002 | 0.7018
303 K, 101.33 kPa, x1 = 0.3 | 0.8271
303 K, 101.33 kPa, x1 = 0.4002 | 0.9916
303 K, 101.33 kPa, x1 = 0.5004 | 1.198
303 K, 101.33 kPa, x1 = 0.6012 | 1.498
303 K, 101.33 kPa, x1 = 0.6985 | 1.883
303 K, 101.33 kPa, x1 = 0.8 | 2.387
303 K, 101.33 kPa, x1 = 0.8982 | 2.971
303.15 K, 100 kPa, x2 = 0.0814 | 3.292
303.15 K, 100 kPa, x2 = 0.1623 | 2.773
303.15 K, 100 kPa, x2 = 0.2401 | 2.333
303.15 K, 100 kPa, x2 = 0.3536 | 1.832
303.15 K, 100 kPa, x2 = 0.4411 | 1.514
303.15 K, 100 kPa, x2 = 0.5516 | 1.175
303.15 K, 100 kPa, x2 = 0.6465 | 0.951
303.15 K, 100 kPa, x2 = 0.7441 | 0.797
303.15 K, 100 kPa, x2 = 0.8425 | 0.684
303.15 K, 100 kPa, x2 = 0.9324 | 0.604
313 K, 101.33 kPa, x1 = 0.1001 | 0.5329
313 K, 101.33 kPa, x1 = 0.2002 | 0.6064
313 K, 101.33 kPa, x1 = 0.3 | 0.7078
313 K, 101.33 kPa, x1 = 0.4002 | 0.8581
313 K, 101.33 kPa, x1 = 0.5004 | 0.9873
313 K, 101.33 kPa, x1 = 0.6012 | 1.194
313 K, 101.33 kPa, x1 = 0.6985 | 1.49
313 K, 101.33 kPa, x1 = 0.8 | 1.852
313 K, 101.33 kPa, x1 = 0.8982 | 2.274
313.15 K, 100 kPa, x2 = 0.0814 | 2.463
313.15 K, 100 kPa, x2 = 0.1623 | 2.077
313.15 K, 100 kPa, x2 = 0.2401 | 1.772
313.15 K, 100 kPa, x2 = 0.3536 | 1.428
313.15 K, 100 kPa, x2 = 0.4411 | 1.201
313.15 K, 100 kPa, x2 = 0.5516 | 0.954
313.15 K, 100 kPa, x2 = 0.6465 | 0.789
313.15 K, 100 kPa, x2 = 0.7441 | 0.661
313.15 K, 100 kPa, x2 = 0.8425 | 0.581
313.15 K, 100 kPa, x2 = 0.9324 | 0.525
323 K, 101.33 kPa, x1 = 0.1001 | 0.4717
323 K, 101.33 kPa, x1 = 0.2002 | 0.53
323 K, 101.33 kPa, x1 = 0.3 | 0.613
323 K, 101.33 kPa, x1 = 0.4002 | 0.7007
323 K, 101.33 kPa, x1 = 0.5004 | 0.8259
323 K, 101.33 kPa, x1 = 0.6012 | 0.9863
323 K, 101.33 kPa, x1 = 0.6985 | 1.209
323 K, 101.33 kPa, x1 = 0.8 | 1.467
323 K, 101.33 kPa, x1 = 0.8982 | 1.768
323.15 K, 100 kPa, x2 = 0.0814 | 1.934
323.15 K, 100 kPa, x2 = 0.1623 | 1.654
323.15 K, 100 kPa, x2 = 0.2401 | 1.411
323.15 K, 100 kPa, x2 = 0.3536 | 1.135
323.15 K, 100 kPa, x2 = 0.4411 | 0.962
323.15 K, 100 kPa, x2 = 0.5516 | 0.781
323.15 K, 100 kPa, x2 = 0.6465 | 0.656
323.15 K, 100 kPa, x2 = 0.7441 | 0.568
323.15 K, 100 kPa, x2 = 0.8425 | 0.5
323.15 K, 100 kPa, x2 = 0.9324 | 0.458

CCOCC + c1ccccc1
Conditions | viscosity
293.15 K, 101 kPa, x2 = 0.24 | 0.3 mPa·s
293.15 K, 101 kPa, x2 = 0.49 | 0.381 mPa·s
293.15 K, 101 kPa, x2 = 0.74 | 0.482 mPa·s
293.15 K, 101.33 kPa, x1 = 0.2 | 0.504 mPa·s and 0.504 mPa·s
293.15 K, 101.33 kPa, x1 = 0.4 | 0.407 mPa·s
293.15 K, 101.33 kPa, x1 = 0.5 | 0.371 mPa·s and 0.371 mPa·s
293.15 K, 101.33 kPa, x1 = 0.6 | 0.339 mPa·s
293.15 K, 101.33 kPa, x1 = 0.8 | 0.289 mPa·s
298.15 K, 101 kPa, x1 = 0.2529 | 0.438 mPa·s
298.15 K, 101 kPa, x1 = 0.4438 | 0.362 mPa·s
298.15 K, 101 kPa, x1 = 0.7248 | 0.282 mPa·s
298.15 K, 101 kPa, x2 = 0.24 | 0.288 mPa·s
298.15 K, 101 kPa, x2 = 0.275 | 0.282 mPa·s
298.15 K, 101 kPa, x2 = 0.49 | 0.366 mPa·s
298.15 K, 101 kPa, x2 = 0.5563 | 0.362 mPa·s
298.15 K, 101 kPa, x2 = 0.74 | 0.455 mPa·s
298.15 K, 101 kPa, x2 = 0.7471 | 0.438 mPa·s
303.15 K, 101 kPa, x2 = 0.24 | 0.278 mPa·s
303.15 K, 101 kPa, x2 = 0.49 | 0.346 mPa·s
303.15 K, 101 kPa, x2 = 0.74 | 0.43 mPa·s
308.15 K, 101 kPa, x2 = 0.49 | 0.322 mPa·s
308.15 K, 101 kPa, x2 = 0.74 | 0.408 mPa·s

O=C1CCCCC1 + c1ccccc1
viscosity [mPa·s]
Conditions | 298.15 K | 303.15 K | 308.15 K
101 kPa, x1 = 0.0989 | 0.674 | – | –
101 kPa, x1 = 0.1983 | 0.731 | – | –
101 kPa, x1 = 0.2984 | 0.8 | – | –
101 kPa, x1 = 0.3848 | 0.865 | – | –
101 kPa, x1 = 0.5166 | 0.856 | – | –
101 kPa, x1 = 0.5909 | 1.086 | – | –
101 kPa, x1 = 0.6876 | 1.37 | – | –
101 kPa, x1 = 0.7775 | 1.481 | – | –
101 kPa, x1 = 0.8574 | 1.534 | – | –
101.33 kPa, x1 = 0.1014 | 0.661 | 0.616 | 0.574
101.33 kPa, x1 = 0.1996 | 0.726 | 0.676 | 0.629
101.33 kPa, x1 = 0.3037 | 0.803 | 0.747 | 0.694
101.33 kPa, x1 = 0.4039 | 0.888 | 0.824 | 0.771
101.33 kPa, x1 = 0.502 | 0.996 | 0.942 | 0.85
101.33 kPa, x1 = 0.5997 | 1.122 | 1.026 | 0.945
101.33 kPa, x1 = 0.7018 | 1.28 | 1.175 | 1.084
101.33 kPa, x1 = 0.8023 | 1.472 | 1.346 | 1.236
101.33 kPa, x1 = 0.9237 | 1.773 | 1.61 | 1.472

From the CheMixHub viscosity set
